From US20250144067A1, “PERSONALIZED STARVATION THERAPY FOR CANCER” (Faeth Therapeutics, Inc., priority 2021, published 2025)
Counter-ions that a name gives are not always drawn.

Tests used:
[1] = test system: NCI-H292 lung cancer cells; assay: FDA drug screening, complete media vs cholesterol-free media with simvastatin (TABLE 2); assay type: cell-based, human; conditions: for Cholesterol-free media + simvastatin (0.04 μM) / Complete Media: NCI-H292 cells
[2] = test system: NCI-H292 lung cancer cells; assay: FDA drug screening, complete media vs cholesterol-free media without statin (TABLE 1); assay type: cell-based, human
[3] = cholesterol-free media with simvastatin 0.04 μM, FDA drug library screen (TABLE 2)
[4] = complete media, FDA drug library screen (TABLE 2)
[5] = complete media minus cholesterol-free media + simvastatin (0.04 μM), >0 enhanced anti-cancer activity, about 0 neutral, <0 antagonist
[6] = NCI-H292 cells, cholesterol-free media without statin, FDA drug library screen
[7] = NCI-H292 cells, complete media, FDA drug library screen
[8] = complete vs cholesterol-free media, >0 enhanced anti-cancer activity, about 0 neutral, <0 antagonist
[9] = drug in cholesterol-free media with simvastatin 0.04 μM
[10] = complete media vs cholesterol-free media + simvastatin (0.04 μM), >0 enhanced anti-cancer activity, about 0 neutral, <0 antagonist
[11] = Complete minus Cholesterol-free, greater than 0 enhanced anti-cancer activity, about 0 neutral, below 0 antagonists
[12] = NCI-H292 cells in cholesterol-free media without statin
[13] = NCI-H292 cells in complete media
[14] = FDA library drug in cholesterol-free media with simvastatin 0.04 μM
[15] = FDA library drug in complete media
[16] = Complete minus Cholesterol-free, >0 enhanced anti-cancer activity, about 0 neutral, <0 antagonist
[17] = NCI-H292 cells, cholesterol-free media without statin
[18] = FDA drug library screen, cholesterol-free media with simvastatin 0.04 μM
[19] = FDA drug library screen, complete media
[20] = complete media minus cholesterol-free media + simvastatin, >0 enhanced anti-cancer activity, about 0 neutral, <0 antagonist
[21] = cholesterol-free media with simvastatin 0.04 μM, cell growth value in FDA drug screen
[22] = complete media, cell growth value in FDA drug screen
[23] = complete media minus cholesterol-free media + simvastatin, […]
[24] = Complete minus Cholesterol-free, […]
[25] = NCI-H292 cells, FDA drug library screen, cholesterol-free media without statin
[26] = NCI-H292 cells, FDA drug library screen, complete media
[27] = complete media vs cholesterol-free media + simvastatin (0.04 μM), […]

`Nc1c(CC(=O)O)cccc1C(=O)c1ccccc1` [Amfenac (Sodium Hydrate)] was tested, and the “Cholesterol-free media + simvastatin (0.04 μM)” value [1, 3] was 0.8959, the “Complete Media” value [1, 4] was 0.8462 and the Difference [1, 5] was −0.05. For the same molecule, the Cholesterol-free [2, 6] was 1.155, the Complete [2, 7] was 1.799 and the Difference [2, 8] was 0.64.
With `CC[C@@H]1CN(C(=O)NCC(F)(F)F)C[C@@H]1c1cnc2cnc3[nH]ccc3n12` [Upadacitinib] the “Cholesterol-free media + simvastatin (0.04 μM)” value [1, 9] was 0.7425, the “Complete Media” value ([1]; drug in complete media) was 0.5732 and the Difference [1, 10] was −0.17. The Difference [2, 11] was −0.51, the Cholesterol-free [2, 12] was 1.213 and the Complete [2, 13] was 0.7003.
In the case of `O=C(O[C@H]1CN2CCC1CC2)N1CCc2ccccc2[C@@H]1c1ccccc1` [Solifenacin], the “Cholesterol-free media + simvastatin (0.04 μM)” value [1, 14] was 1.222, the “Complete Media” value [1, 15] was 0.9497 and the Difference [1, 10] was −0.27. The Difference [2, 16] was −0.26, the Cholesterol-free [2, 17] was 1.142 and the Complete ([2]; NCI-H292 cells, complete media) was 0.8797.
With `C[Se]CC[C@H](N)C(=O)O` [L-SelenoMethionine] the “Cholesterol-free media + simvastatin (0.04 μM)” value [1, 18] was 1.886, the “Complete Media” value [1, 19] was 1.795 and the Difference [1, 10] was −0.09. It also gave a Difference [2, 11] of −0.92, a Cholesterol-free [2, 12] of 2.252 and a Complete [2, 13] of 1.327.
`CC[C@@]1(O)C(=O)OCc2c1cc1n(c2=O)Cc2c-1nc1ccccc1c2CCNC(C)C` [Belotecan (hydrochloride)] was tested, and the “Cholesterol-free media + simvastatin (0.04 μM)” value [1, 3] was −0.0005237, the “Complete Media” value [1, 4] was 0.007701 and the Difference [1, 5] was 0.01. It also gave a Difference [2, 16] of 0.00, a Cholesterol-free [2, 6] of 0.00566 and a Complete [2, 7] of 0.01027.
In the case of `NCCc1c[nH]cn1` [Histamine], the “Cholesterol-free media + simvastatin (0.04 μM)” value [1, 18] was 1.15, the “Complete Media” value [1, 19] was 1.573 and the Difference [1, 20] was 0.42. For the same molecule, the Difference [2, 16] was 0.05, the Cholesterol-free [2, 6] was 0.9318 and the Complete [2, 7] was 0.9813.
For `CN1CC2c3ccccc3Oc3ccc(Cl)cc3C2C1` (centres unmarked) [Asenapine (hydrochloride)], the “Cholesterol-free media + simvastatin (0.04 μM)” value [1, 21] was 1.244, the “Complete Media” value [1, 22] was 1.302 and the Difference [1, 20] was 0.06. For the same molecule, the Cholesterol-free [2, 6] was 1.288, the Complete [2, 7] was 1.388 and the Difference [2, 8] was 0.10.
`CC(=C(CCOC(=O)C(C)C)SSC(CCOC(=O)C(C)C)=C(C)N(C=O)Cc1cnc(C)nc1N)N(C=O)Cc1cnc(C)nc1N` (stereo in doubt) [Sulbutiamine] was tested, and the “Cholesterol-free media + simvastatin (0.04 μM)” value [1, 21] was 0.8359, the “Complete Media” value [1, 22] was 0.9183 and the Difference [1, 20] was 0.08. It also gave a Cholesterol-free [2, 6] of 1.257, a Complete [2, 7] of 1.438 and a Difference [2, 8] of 0.18.
For `O=C(NC1CCN(CCCCC2(C(=O)NCC(F)(F)F)c3ccccc3-c3ccccc32)CC1)c1ccccc1-c1ccc(C(F)(F)F)cc1` [Lomitapide], the “Cholesterol-free media + simvastatin (0.04 μM)” value [1, 9] was 1.325, the “Complete Media” value ([1]; drug in complete media) was 1.07 and the Difference [1, 10] was −0.25. The Difference [2, 16] was −0.25, the Cholesterol-free [2, 17] was 0.9551 and the Complete ([2]; NCI-H292 cells, complete media) was 0.7097.
In the case of Doxylamine (succinate), the “Cholesterol-free media + simvastatin (0.04 μM)” value [1, 21] was 1.024, the “Complete Media” value [1, 22] was 1.092 and the Difference [1, 20] was 0.07. For the same molecule, the Difference [2, 16] was −0.30, the Cholesterol-free [2, 17] was 1.101 and the Complete ([2]; NCI-H292 cells, complete media) was 0.8034.
For `CC[C@@]1(O)C(=O)OCc2c1cc1n(c2=O)Cc2cc3ccccc3nc2-1` [Camptothecin], the “Cholesterol-free media + simvastatin (0.04 μM)” value [1, 18] was −0.11, the “Complete Media” value [1, 19] was 0.07415 and the Difference [1, 23] was 0.18. It also gave a Difference [2, 24] of −0.01, a Cholesterol-free [2, 6] of 0.0145 and a Complete [2, 7] of 0.005875.
With `Oc1c(Cl)cc(Cl)cc1Sc1cc(Cl)cc(Cl)c1O` [Bithionol] the “Cholesterol-free media + simvastatin (0.04 μM)” value [1, 14] was 2.228, the “Complete Media” value [1, 15] was 1.353 and the Difference [1, 10] was −0.88. For the same molecule, the Difference ([2]; Complete minus Cholesterol-free, greater than 0 enhanced anti-cancer activity, about 0 neutral, below 0 antagonist) was −0.09, the Cholesterol-free [2, 25] was 0.9314 and the Complete [2, 26] was 0.8442.
In the case of `Cc1c(O)cccc1C(=O)N[C@@H](CSc1ccccc1)[C@H](O)CN1C[C@H]2CCCC[C@H]2C[C@H]1C(=O)NC(C)(C)C` [Nelfinavir], the “Cholesterol-free media + simvastatin (0.04 μM)” value [1, 14] was 1.243, the “Complete Media” value [1, 15] was 0.8828 and the Difference [1, 10] was −0.36. The Difference [2, 16] was −0.25, the Cholesterol-free [2, 17] was 1.095 and the Complete ([2]; NCI-H292 cells, complete media) was 0.8463.
In the case of `C[C@H]1C(=O)O[C@@H]2CCN3CC=C(COC(=O)[C@](C)(O)[C@]1(C)O)[C@H]23` [Monocrotaline], the “Cholesterol-free media + simvastatin (0.04 μM)” value [1, 9] was 1.209, the “Complete Media” value ([1]; drug in complete media) was 1.046 and the Difference [1, 27] was −0.16. For the same molecule, the Difference [2, 24] was −0.18, the Cholesterol-free [2, 25] was 1.01 and the Complete [2, 26] was 0.8289.
For `COP(=S)(OC)Oc1ccc([N+](=O)[O-])c(C)c1` [Fenitrothion], the “Cholesterol-free media + simvastatin (0.04 μM)” value [1, 18] was 1.585, the “Complete Media” value [1, 19] was 1.426 and the Difference [1, 27] was −0.16. It also gave a Difference [2, 24] of −0.22, a Cholesterol-free [2, 17] of 0.8622 and a Complete ([2]; NCI-H292 cells, complete media) of 0.6445.
With `CCCCNc1cc(C(=O)O)cc(S(N)(=O)=O)c1Oc1ccccc1` [Bumetanide] the “Cholesterol-free media + simvastatin (0.04 μM)” value [1, 21] was 1.046, the “Complete Media” value [1, 22] was 1.138 and the Difference [1, 20] was 0.09. For the same molecule, the Difference [2, 16] was 0.04, the Cholesterol-free [2, 6] was 0.6987 and the Complete [2, 7] was 0.7406.
With `CC(C[N+](C)(C)C)OC(N)=O.[Cl-]` (centres unmarked) [Bethanechol (chloride)] the “Cholesterol-free media + simvastatin (0.04 μM)” value [1, 14] was 1.34, the “Complete Media” value [1, 15] was 0.9882 and the Difference [1, 10] was −0.35. It also gave a Cholesterol-free [2, 6] of 1.24, a Complete [2, 7] of 1.407 and a Difference [2, 8] of 0.17.
With `Cc1cc2ncc(C(=O)NCC(C)(C)NCC(=O)N3CCC[C@H]3C#N)cn2n1` [Anagliptin] the “Cholesterol-free media + simvastatin (0.04 μM)” value [1, 18] was 1.09, the “Complete Media” value [1, 19] was 0.9692 and the Difference [1, 10] was −0.12. It also gave a Difference [2, 16] of −0.23, a Cholesterol-free [2, 17] of 1.234 and a Complete ([2]; NCI-H292 cells, complete media) of 1.003.
For (−)-Sparteine (sulfate pentahydrate), the “Cholesterol-free media + simvastatin (0.04 μM)” value ([1]; cholesterol-free media with simvastatin 0.04 μM, […]) was 0.83, the “Complete Media” value ([1]; complete media, […]) was 0.9345 and the Difference [1, 23] was 0.10. The Cholesterol-free [2, 17] was 1.28, the Complete ([2]; NCI-H292 cells, complete media) was 0.8579 and the Difference ([2]; complete vs cholesterol-free media, […]) was −0.42.
`COc1cc2c(cc1OC)[C@@H](Cc1cc(OC)c(OC)c(OC)c1)[N+](C)(CCCOC(=O)CC/C=C/CCC(=O)OCCC[N+]1(C)CCc3cc(OC)c(OC)cc3[C@H]1Cc1cc(OC)c(OC)c(OC)c1)CC2.[Cl-].[Cl-]` (some centres unmarked) [Mivacurium (dichloride)] was tested, and the “Cholesterol-free media + simvastatin (0.04 μM)” value [1, 14] was 1.752, the “Complete Media” value [1, 15] was 1.463 and the Difference [1, 27] was −0.29. It also gave a Difference [2, 24] of −0.21, a Cholesterol-free [2, 17] of 0.9248 and a Complete ([2]; NCI-H292 cells, complete media) of 0.7178.
In the case of `CN1C2CCCC1CC(NC(=O)c1nn(C)c3ccccc13)C2` (centres unmarked) [Granisetron (Hydrochloride)], the “Cholesterol-free media + simvastatin (0.04 μM)” value [1, 3] was 0.8994, the “Complete Media” value [1, 4] was 0.8536 and the Difference [1, 5] was −0.05. It also gave a Difference [2, 16] of −0.26, a Cholesterol-free [2, 17] of 1.123 and a Complete ([2]; NCI-H292 cells, complete media) of 0.8639.
With `CCC(=O)O[C@H]1[C@H](O[C@@H]2[C@@H](C)[C@H](O[C@H]3C[C@@](C)(OC)[C@@H](O)[C@H](C)O3)[C@@H](C)C(=O)O[C@H](CC)[C@@](C)(O)[C@H](O)[C@@H](C)C(=O)[C@H](C)C[C@@]2(C)O)O[C@H](C)C[C@@H]1N(C)C` [Erythromycin estolate] the “Cholesterol-free media + simvastatin (0.04 μM)” value [1, 14] was 1.347, the “Complete Media” value [1, 15] was 1.076 and the Difference [1, 10] was −0.27. It also gave a Cholesterol-free [2, 6] of 0.6279, a Complete [2, 7] of 1.129 and a Difference [2, 8] of 0.50.
For `CNNCc1ccc(C(=O)NC(C)C)cc1` [Procarbazine (Hydrochloride)], the “Cholesterol-free media + simvastatin (0.04 μM)” value [1, 18] was 0.7556, the “Complete Media” value [1, 19] was 1.193 and the Difference [1, 20] was 0.44. The Difference [2, 11] was −0.50 and the Complete [2, 13] was 1.119.
